Reference: PubChem BioAssay (NCI)
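1) Cells in 96-well plates. 2) Compound, 48 h, 5 concentrations. 3) Linear interpolation between surrounding doses. 4) Unreached endpoint = highest concentration. At the GI50, growth is halved. TGI marks complete inhibition of growth.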

Tests used:
Assay in all cases: NCI anticancer screen, dose series, 48 h
786-0 renal = tested on: 786-0 renal
A498 renal = tested on: A498 renal
A549 NSCLC = tested on: A549 NSCLC
ACHN renal = tested on: ACHN renal
BT-549 breast = tested on: BT-549 breast
CAKI-1 renal = tested on: CAKI-1 renal
CCRF-CEM leukemia = tested on: CCRF-CEM leukemia
COLO 205 colon = tested on: COLO 205 colon
DU-145 prostate = tested on: DU-145 prostate
HCC-2998 colon = tested on: HCC-2998 colon
HCT-116 colon = tested on: HCT-116 colon
HCT-15 colon = tested on: HCT-15 colon
HL-60(TB) leukemia = tested on: HL-60(TB) leukemia
HOP-62 NSCLC = tested on: HOP-62 NSCLC
HOP-92 NSCLC = tested on: HOP-92 NSCLC
HS 578T breast = tested on: HS 578T breast
HT29 colon = tested on: HT29 colon
IGROV1 ovarian = tested on: IGROV1 ovarian
K-562 leukemia = tested on: K-562 leukemia
KM12 colon = tested on: KM12 colon
LOX IMVI melanoma = tested on: LOX IMVI melanoma
MALME-3M melanoma = tested on: MALME-3M melanoma
MCF7 breast = tested on: MCF7 breast
MDA-MB-231 breast = tested on: MDA-MB-231 breast
MDA-MB-435 = tested on: MDA-MB-435
MOLT-4 leukemia = tested on: MOLT-4 leukemia
NCI-H226 lung = tested on: NCI-H226 lung
NCI-H23 lung = tested on: NCI-H23 lung
NCI-H460 lung = tested on: NCI-H460 lung
NCI-H522 lung = tested on: NCI-H522 lung
NCI/ADR-RES ovarian = tested on: NCI/ADR-RES ovarian
OVCAR-3 ovarian = tested on: OVCAR-3 ovarian
OVCAR-4 ovarian = tested on: OVCAR-4 ovarian
OVCAR-5 ovarian = tested on: OVCAR-5 ovarian
OVCAR-8 ovarian = tested on: OVCAR-8 ovarian
PC-3 prostate = tested on: PC-3 prostate
RPMI-8226 leukemia = tested on: RPMI-8226 leukemia
RXF 393 renal = tested on: RXF 393 renal
SF-268 CNS = tested on: SF-268 CNS
SF-295 CNS = tested on: SF-295 CNS
SF-539 CNS = tested on: SF-539 CNS
SK-MEL-2 melanoma = tested on: SK-MEL-2 melanoma
SK-MEL-28 melanoma = tested on: SK-MEL-28 melanoma
SK-MEL-5 melanoma = tested on: SK-MEL-5 melanoma
SK-OV-3 ovarian = tested on: SK-OV-3 ovarian
SN12C renal = tested on: SN12C renal
SNB-19 CNS = tested on: SNB-19 CNS
SNB-75 CNS = tested on: SNB-75 CNS
SR leukemia = tested on: SR leukemia
SW-620 colon = tested on: SW-620 colon
T-47D breast = tested on: T-47D breast
TK-10 renal = tested on: TK-10 renal
U251 CNS = tested on: U251 CNS
UACC-257 melanoma = tested on: UACC-257 melanoma
UACC-62 melanoma = tested on: UACC-62 melanoma
UO-31 renal = tested on: UO-31 renal

Structure (SMILES): CCc1ccc(CNCC(O)c2ccccc2)cc1 (configuration not stated)
- GI50 (786-0 renal): 20.1 µM
- TGI (786-0 renal): 53.8 µM
- GI50 (A498 renal): 5.14 µM
- TGI (A498 renal): 47.2 µM
- GI50 (A549 NSCLC): 39.2 µM
- TGI (A549 NSCLC): > 100 µM
- GI50 (ACHN renal): 31.4 µM
- TGI (ACHN renal): > 100 µM
- GI50 (BT-549 breast): 8.3 µM
- TGI (BT-549 breast): > 100 µM
- GI50 (CAKI-1 renal): 25.4 µM
- TGI (CAKI-1 renal): > 100 µM
- GI50 (CCRF-CEM leukemia): 34.5 µM
- TGI (CCRF-CEM leukemia): > 100 µM
- GI50 (COLO 205 colon): 16.6 µM
- TGI (COLO 205 colon): 33 µM
- GI50 (DU-145 prostate): 35.5 µM
- TGI (DU-145 prostate): > 100 µM
- GI50 (HCC-2998 colon): 17.9 µM
- TGI (HCC-2998 colon): 36.8 µM
- GI50 (HCT-116 colon): 28.4 µM
- TGI (HCT-116 colon): > 100 µM
- GI50 (HCT-15 colon): 17.3 µM
- TGI (HCT-15 colon): 53 µM
- GI50 (HL-60(TB) leukemia): 23.4 µM
- TGI (HL-60(TB) leukemia): 68.6 µM
- GI50 (HOP-62 NSCLC): 37.1 µM
- TGI (HOP-62 NSCLC): > 100 µM
- GI50 (HOP-92 NSCLC): 6.14 µM
- TGI (HOP-92 NSCLC): 38.1 µM
- GI50 (HS 578T breast): 28.1 µM
- TGI (HS 578T breast): > 100 µM
- GI50 (HT29 colon): 21.5 µM
- TGI (HT29 colon): 68.4 µM
- GI50 (IGROV1 ovarian): 47.8 µM
- TGI (IGROV1 ovarian): > 100 µM
- GI50 (K-562 leukemia): 7.85 µM
- TGI (K-562 leukemia): 62.6 µM
- GI50 (KM12 colon): 15 µM
- TGI (KM12 colon): 32.1 µM
- GI50 (LOX IMVI melanoma): 16.4 µM
- TGI (LOX IMVI melanoma): 34 µM
- GI50 (MALME-3M melanoma): 14.8 µM
- TGI (MALME-3M melanoma): 31.2 µM
- GI50 (MCF7 breast): 15.5 µM
- TGI (MCF7 breast): 34.2 µM
- GI50 (MDA-MB-231 breast): 13.2 µM
- TGI (MDA-MB-231 breast): 35.7 µM
- GI50 (MDA-MB-435): 6.93 µM
- TGI (MDA-MB-435): 20.1 µM
- GI50 (MOLT-4 leukemia): 21.8 µM
- TGI (MOLT-4 leukemia): 54.5 µM
- GI50 (NCI-H226 lung): > 100 µM
- TGI (NCI-H226 lung): > 100 µM
- GI50 (NCI-H23 lung): 49.2 µM
- TGI (NCI-H23 lung): > 100 µM
- GI50 (NCI-H460 lung): 19.1 µM
- TGI (NCI-H460 lung): 42.8 µM
- GI50 (NCI-H522 lung): 24.7 µM
- TGI (NCI-H522 lung): 70.5 µM
- GI50 (NCI/ADR-RES ovarian): 20.8 µM
- TGI (NCI/ADR-RES ovarian): 71.2 µM
- GI50 (OVCAR-3 ovarian): 25.2 µM
- TGI (OVCAR-3 ovarian): 79.2 µM
- GI50 (OVCAR-4 ovarian): 29.6 µM
- TGI (OVCAR-4 ovarian): > 100 µM
- GI50 (OVCAR-5 ovarian): 18.1 µM
- TGI (OVCAR-5 ovarian): 44.2 µM
- GI50 (OVCAR-8 ovarian): 26.5 µM
- TGI (OVCAR-8 ovarian): > 100 µM
- GI50 (PC-3 prostate): 34.8 µM
- TGI (PC-3 prostate): > 100 µM
- GI50 (RPMI-8226 leukemia): 22.7 µM
- TGI (RPMI-8226 leukemia): 53.3 µM
- GI50 (RXF 393 renal): 14.3 µM
- TGI (RXF 393 renal): 45.5 µM
- GI50 (SF-268 CNS): 33.6 µM
- TGI (SF-268 CNS): > 100 µM
- GI50 (SF-295 CNS): 16.5 µM
- TGI (SF-295 CNS): 35.5 µM
- GI50 (SF-539 CNS): 16.5 µM
- TGI (SF-539 CNS): 39.5 µM
- GI50 (SK-MEL-2 melanoma): 17.2 µM
- TGI (SK-MEL-2 melanoma): 33.7 µM
- GI50 (SK-MEL-28 melanoma): 14.5 µM
- TGI (SK-MEL-28 melanoma): 28.7 µM
- GI50 (SK-MEL-5 melanoma): 15.7 µM
- TGI (SK-MEL-5 melanoma): 29.2 µM
- GI50 (SK-OV-3 ovarian): 63 µM
- TGI (SK-OV-3 ovarian): > 100 µM
- GI50 (SN12C renal): 33.5 µM
- TGI (SN12C renal): > 100 µM
- GI50 (SNB-19 CNS): 46.9 µM
- TGI (SNB-19 CNS): > 100 µM
- GI50 (SNB-75 CNS): 5.39 µM
- TGI (SNB-75 CNS): 42.2 µM
- GI50 (SR leukemia): 13.5 µM
- TGI (SR leukemia): 49.2 µM
- GI50 (SW-620 colon): 18.5 µM
- TGI (SW-620 colon): 42.9 µM
- GI50 (T-47D breast): 20.2 µM
- TGI (T-47D breast): 51.9 µM
- GI50 (TK-10 renal): 34.2 µM
- TGI (TK-10 renal): > 100 µM
- GI50 (U251 CNS): 17.7 µM
- TGI (U251 CNS): 43.1 µM
- GI50 (UACC-257 melanoma): 16.2 µM
- TGI (UACC-257 melanoma): 35.7 µM
- GI50 (UACC-62 melanoma): 16.5 µM
- TGI (UACC-62 melanoma): 32.4 µM
- GI50 (UO-31 renal): 18.9 µM
- TGI (UO-31 renal): > 100 µM
